How the values were obtained:
H28 = test: CellTiter-Glo 2.0 long-term cell viability assay; format: cell-based; conditions: Homo sapiens, H28, BAP1 mutant
Description: (§1) The ability of Compound 1 to selectivity suppress mesothelioma cancer cell viability was assessed in a panel of cell lines after 7, 14 and 21 days of treatment with Compound 1. Cell viability was determined using CellTiter-Glo®2 luminescent cell viability assay.
(§2) Cell culture conditions. MSTO-211H, H2052, H2452, H28, H226 cell lines were obtained from ATCC (Manassas, VA) and were grown in media as recommended by the vendor. For long-term assays, cells were plated in 96-well plates containing. Compound 1. Cell lines were treated with a dose titration of Compound 1 starting at 2 μM top concentration.
(§3) Cellular assay—assessment of cell viability. Relative cell numbers were assessed by CellTiter-Glo® 2.0 luminescent cell viability assay (Promega Catalog #G9243) using a Perkin Elmer EnVision Alpha Reader (Model #2104, Waltham, MA). 50 μL of CellTiter-Glo® 2.0 reagent was added to each well containing 100 μL cell suspension and incubated for 30 min at RT with shaking at low speed. GraphPad Prism was used for curve fitting and GI50 determinations.

H226 = test: CellTiter-Glo 2.0 long-term cell viability assay; format: cell-based; conditions: Homo sapiens, H226, BAP1 mutant
Description: as §1, §2, §3

H2052 = test: CellTiter-Glo 2.0 long-term cell viability assay; format: cell-based; conditions: Homo sapiens, H2052, BAP1 wildtype
Description: as §1, §2, §3

MSTO-211H = test: CellTiter-Glo 2.0 long-term cell viability assay; format: cell-based; conditions: Homo sapiens, BAP1 wildtype
Description: as §1, §2, §3

H2452 = test: CellTiter-Glo 2.0 long-term cell viability assay; format: cell-based; conditions: Homo sapiens, H2452, BAP1 mutant
Description: as §1, §2, §3

PXF 1118 = test: pleural mesothelioma PDX model, tumor growth inhibition; format: in vivo, NMRI nu/nu mice; conditions: PXF 1118, 75 mg/kg p.o. QD; without a statistically significant reduction in tumor volume
Description: (§4) Compound 1 was evaluated in 6 patient-derived xenograft (PDX) models of pleural mesothelioma with BAP1 alterations (Table 3) implanted subcutaneously in immunodeficient mice (NSG mice in the case of tumor model PXF 2328, NMRI nu/nu mice for all other tumor models). Each experiment had two groups of generally five mice each enrolled at tumor volumes in the range of 53.9-198.9 mm^3. The first group was a vehicle control group, while the second group was treated with Compound 1, administered orally (p.o.) once daily (QD) at a dose level of 75 mg/kg. The duration of the experiments ranged between 30 and 65 days.
(§5) Antitumor efficacy of all groups was assessed using the vehicle control group as a reference. Tumor growth inhibition was determined by the comparison of tumor growth in the test groups with the vehicle control group and is expressed as the maximum tumor growth inhibition (TGI) value in percent. The statistical significance of differences between test and control groups was assessed using the non-parametric U-test.

PXF 680 = test: as above; format: in vivo, NMRI nu/nu mice; conditions: PXF 680, 75 mg/kg p.o. QD; statistically significant reduction in tumor volume vs vehicle (U-test)
Description: as §4, §5

PXF 541 = test: as above; format: in vivo, NMRI nu/nu mice; conditions: PXF 541, 75 mg/kg p.o. QD; statistically significant reduction in tumor volume vs vehicle (U-test)
Description: as §4, §5

PXF 2443 = test: as above; format: in vivo, NMRI nu/nu mice; conditions: PXF 2443, 75 mg/kg p.o. QD; without a statistically significant reduction in tumor volume
Description: as §4, §5

PXF 537 = test: as above; format: in vivo, NMRI nu/nu mice; conditions: PXF 537, 75 mg/kg p.o. QD; statistically significant reduction in tumor volume vs control
Description: as §4, §5

PXF 2328 = test: as above; format: in vivo; conditions: PXF 2328 implanted in NSG mice, 75 mg/kg p.o. QD
Description: as §4, §5

[1] = tested on: pleural or peritoneal BAP1 loss mesothelioma; test: human clinical phase 2 study, Compound 1 monotherapy, response by cancer cohort; format: in vivo; conditions: intermediate cut-off date
Description: As part of a human clinical phase 2 study, subjects with pleural or peritoneal BAP1 loss mesothelioma were administered 350 mg/day Compound 1 for up to about 7.5 months (FIG. 1). Compound 1 was administered orally as a single agent (monotherapy). The cancers in each subject were known to have BAP1 mutations as determined by next generation sequencing (NGS) or local immunohistochemistry (IHC) testing prior to treatment. A complete response is characterized as disappearance of all lesions, a partial response is characterized as at least a 30% decrease in the sum of the longest diameter (LD) of target lesions, taking as reference the baseline sum LD; stable disease is characterized as neither sufficient shrinkage to qualify for partial response nor sufficient increase to qualify for progressive disease, taking as reference the smallest sum diameters; and progressive disease is characterized as at least a 20% increase in the sum of the LD of target lesions, taking as reference the smallest sum LD recorded since the treatment started or the appearance of one or more new lesions.

[2] = tested on: pleural mesothelioma PDX models with BAP1 alterations; test: panel of 6 PDX models of pleural mesothelioma with BAP1 alterations; format: in vivo, mice; conditions: 75 mg/kg p.o. QD
Description: as §4, §5

[3] = 350 mg/day oral monotherapy, efficacy evaluable patients N = 9

GI50 (H226; NCI-H226, 168 h, Day 7): > 2000 nM
GI50 (H226; NCI-H226, 336 h, Day 14): > 2000 nM
GI50 (H226; NCI-H226, 504 h, Day 21): > 2000 nM
GI50 (H2052; NCI-H2052, 168 h, Day 7): > 2000 nM
GI50 (H2052; NCI-H2052, 336 h, Day 14): > 2000 nM
GI50 (H2052; NCI-H2052, 504 h, Day 21): > 2000 nM
GI50 (H2452; NCI-H2452, 168 h, Day 7): > 2000 nM
GI50 (H2452; NCI-H2452, 336 h, Day 14): 6 nM
GI50 (H2452; NCI-H2452, 504 h, Day 21): 5 nM
Structure (SMILES): COC1CN([C@H]2CC[C@H]([C@@]3(C)Oc4c(Cl)cc(C(=O)NCc5c(SC)cc(C)[nH]c5=O)c(C)c4O3)CC2)C1 [Compound 1, (R)-7-chloro-2-((1r,4R)-4-(3-methoxyazetidin-1-yl)cyclohexyl)-2,4-dimethyl-N-((6-methyl-4-(methylthio)-2-oxo-1,2-dihydropyridin-3-yl)methyl)benzo[d][1,3]dioxole-5-carboxamide]
GI50 (H28; NCI-H28, 168 h, Day 7): > 2000 nM
GI50 (H28; NCI-H28, 336 h, Day 14): 234 nM
GI50 (H28; NCI-H28, 504 h, Day 21): 45 nM
GI50 (MSTO-211H; 168 h, Day 7): > 2000 nM
GI50 (MSTO-211H; 336 h, Day 14): > 2000 nM
GI50 (MSTO-211H; 504 h, Day 21): > 2000 nM
effect on tumor growth (PXF 1118): slowed growth
maximum tumor growth inhibition (TGI) (PXF 680): > 100%
maximum tumor growth inhibition (TGI) (PXF 541): > 100%
effect on tumor growth (PXF 2443): slowed growth
effect on tumor growth (PXF 537): almost stasis
effect on tumor growth (PXF 2328): inactive
Complete response [1, 3]: 0 n (%)
Partial response [1, 3]: 2 (22.2) n (%)
Progressive disease [1, 3]: 3 (33.3) n (%)
Stable disease [1, 3]: 4 (44.4) n (%)
patients showing (partial) response and stable disease [1]: > 60%
PDX models with a relevant TGI of greater than 50% [2]: 4 out of the 6

Source: patent publication US20260137668A1, “EZH2 INHIBITION THERAPIES FOR THE TREATMENT OF BRCA1-ASSOCIATED PROTEIN (BAP1) MUTATED CANCERS” (Constellation Pharmaceuticals, Inc., priority 2022, published 2026)
